Values of other authors as cited in patent US20210000980A1, “METHOD AND COMPOSITION FOR THE DETECTION OF ARTHROPODS” (ARKE' S.r.l., priority 2018, published 2021).

Tested on: lice
Conditions: 10% formic acid solution in water

O=CO [formic acid]
lice removed: ≤ 94%
